From US10836770B2, “Imidazopyridazine compounds useful as modulators of IL-12, IL-23 and/or INF alpha responses” (priority 2016, dated 2020)
Like-named read-outs stand apart in the source and are kept apart here.

Tests used:
[1] = test system: IFNα-stimulated Kit225 T cells with STAT-dependent luciferase reporter; experiment: Kit225 T cell assay, IFNα stimulated STAT-dependent luciferase reporter; type: cell-based, human
Experimental: (§1) Kit225 T cells with a stably-integrated STAT-dependent luciferase reporter were plated in RPMI (GIBCO) containing 10% heat-inactivated FBS (GIBCO) and 100 U/mL PenStrep (GIBCO). The cells were then stimulated with either 20 ng/mL human recombinant IL-23 or 200 U/mL human recombinant IFNα (PBL InterferonSource) for 5-6 hours. Luciferase expression was measured using the STEADY-GLO® Luciferase Assay System (PROMEGA®) according to the manufacturer's instructions.

[2] = molecular target: T1, recombinantly expressed His-tagged protein corresponding to amino acids 575-869 of human Tyk2 (Homo sapiens, UniProt P29597); experiment: Probe displacement assay (scintillation proximity, radiolabeled probe); type: binding
T1 construct: made in house
T1 sequence (P29597 with tags, fused parts or gaps): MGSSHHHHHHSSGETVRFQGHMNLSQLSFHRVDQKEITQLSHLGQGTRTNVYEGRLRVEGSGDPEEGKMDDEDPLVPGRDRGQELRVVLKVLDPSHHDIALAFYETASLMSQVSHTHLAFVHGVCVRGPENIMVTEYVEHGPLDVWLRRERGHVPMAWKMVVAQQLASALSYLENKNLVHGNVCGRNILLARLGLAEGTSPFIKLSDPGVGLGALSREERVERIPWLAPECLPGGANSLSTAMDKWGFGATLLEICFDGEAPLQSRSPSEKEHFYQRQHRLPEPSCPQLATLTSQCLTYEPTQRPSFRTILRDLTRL
Experimental: The probe displacement assay is conducted as follows: In a […], test compounds along with recombinantly expressed His-tagged protein corresponding to amino acids 575-869 of human Tyk2 (sequence shown below) at 2.5 nM, 40 nM ((R)—N-(1-(3-(8-methyl-5-(methylamino)-8H-imidazo[4,5-d]thiazolo[5,4-b]pyridin-2-yl)phenyl)ethyl)-2-([^3H]methylsulfonyl)benzamide) (preparation described below) and 80 μg/mL Copper His-Tag scintillation proximity assay beads (Perkin Elmer, Catalog #RPNQ0095) in 50 mM HEPES, pH 7.5, containing 100 μg/mL bovine serum albumin and 5% DMSO were incubated for 30 minutes at room temperature. […] The IC50 value is defined as the concentration of test compound required to inhibit radiolabeled probe binding by 50%.
Protein Sequence of recombinant Hig-tagged Tyk2 (575-869):
The preparation of radiolabeled probe, (R)—N-(1-(3-(8-methyl-5-(methylamino)-8H-imidazo[4,5-d]thiazolo[5,4-b]pyridin-2-yl)phenyl)ethyl)-2-([^3H]methylsulfonyl)benzamide, was performed as described below: […]

[3] = test system: IL-23-stimulated Kit225 T cells with STAT-dependent luciferase reporter; experiment: Kit225 T cell assay, IL-23 stimulated STAT-dependent luciferase reporter; type: cell-based, human
Experimental: as §1

[4] = Homo sapiens, KIT225, read-out: IFNa Kit225 Reporter, LE (IC50, uM)
[5] = Homo sapiens, KIT225, read-out: IL-23 Kit225 Reporter, LE (IC50, uM)

SMILES: CNC(=O)c1cc(Nc2cc(NC)c3ncc(C(=O)NC4CC4)n3n2)n(C)n1 [Example 39, N-cyclopropyl-6-((1-methyl-3-(methylcarbamoyl)-1H-pyrazol-5-yl)amino)-8-(methylamino)imidazo[1,2-b]pyridazine-3-carboxamide]
- IC50 [1, 4]: 12.5 µM
- EC50 [2]: 1270 nM
- IC50 [3, 5]: 12.5 µM

SMILES: CNc1cc(Nc2cc(C(=O)Nc3ccccc3)nn2C)nn2c(C(=O)NC3CC3)cnc12 [Example 40]
- IC50 [1, 4]: 12.5 µM
- EC50 [2]: 80 nM
- IC50 [3, 5]: 12.5 µM

SMILES: CNC(=O)c1cc(Nc2cc(NC)c3ncc(C(=O)NC4CC4)n3n2)nn1C [Example 41, N-cyclopropyl-6-((1-methyl-5-(methylcarbamoyl)-1H-pyrazol-3-yl)amino)-8-(methylamino)imidazo[1,2-b]pyridazine-3-carboxamide]
- IC50 [1, 4]: 12.5 µM
- EC50 [2]: 30 nM
- IC50 [3, 5]: 12.5 µM

SMILES: CNc1cc(Nc2cc(C(=O)Nc3ccccc3)n(C)n2)nn2c(C(=O)NC3CC3)cnc12 [Example 42]
- IC50 [1, 4]: 12.5 µM
- EC50 [2]: 360 nM
- IC50 [3, 5]: 12.5 µM

SMILES: CNC(=O)c1sccc1Nc1cc(NC)c2ncc(C(=O)NC3CC3)n2n1 [Example 43, N-cyclopropyl-8-(methylamino)-6-((2-(methylcarbamoyl)thiophen-3-yl)amino)imidazo[1,2-b]pyridazine-3-carboxamide]
- IC50 [1, 4]: 12.5 µM
- EC50 [2]: 490 nM
- IC50 [3, 5]: 16.1 µM

SMILES: CNc1cc(Nc2ccsc2C(=O)NC(C)C)nn2c(C(=O)NC3CC3)cnc12 [Example 44]
- IC50 [1, 4]: 0.07 µM
- EC50 [2]: 10 nM
- IC50 [3, 5]: 0.14 µM

SMILES: CNc1cc(Nc2ccsc2C(=O)Nc2ccc(F)cc2)nn2c(C(=O)NC3CC3)cnc12 [Example 45]
- IC50 [1, 4]: 0.13 µM
- EC50 [2]: 20 nM
- IC50 [3, 5]: 0.22 µM

SMILES: CNc1cc(Nc2ccsc2C(=O)Nc2cccnc2)nn2c(C(=O)NC3CC3)cnc12 [Example 46]
- IC50 [1, 4]: 0.12 µM
- EC50 [2]: 8 nM
- IC50 [3, 5]: 0.1 µM

SMILES: [2H]C([2H])([2H])NC(=O)c1sccc1Nc1cc(NC)c2ncc(C(=O)NC3CC3)n2n1 [Example 47]
- IC50 [1, 4]: 0.05 µM
- EC50 [2]: 5.13 nM
- IC50 [3, 5]: 0.06 µM

SMILES: [2H]C([2H])([2H])NC(=O)c1sccc1Nc1cc(NC)c2ncc(C(=O)NCCOC)n2n1 [Example 48]
- IC50 [1, 4]: 0.08 µM
- EC50 [2]: 20 nM
- IC50 [3, 5]: 0.15 µM

SMILES: [2H]C([2H])([2H])NC(=O)c1sccc1Nc1cc(NC)c2ncc(C(=O)NCCO)n2n1 [Example 49]
- IC50 [1, 4]: 0.26 µM
- EC50 [2]: 40 nM
- IC50 [3, 5]: 0.27 µM

SMILES: [2H]C([2H])([2H])NC(=O)c1sccc1Nc1cc(NC)c2ncc(C(=O)NC3CCC3)n2n1 [Example 50]
- IC50 [1, 4]: 1 µM
- EC50 [2]: 30 nM
- IC50 [3, 5]: 0.45 µM

SMILES: CNC(=O)c1occc1Nc1cc(NC)c2ncc(C(=O)NC3CC3)n2n1 [Example 51, N-cyclopropyl-8-(methylamino)-6-((2-(methylcarbamoyl)furan-3-yl)amino)imidazo[1,2-b]pyridazine-3-carboxamide]
- IC50 [1, 4]: 0.04 µM
- EC50 [2]: 3.79 nM
- IC50 [3, 5]: 0.05 µM

SMILES: CCNC(=O)c1occc1Nc1cc(NC)c2ncc(C(=O)NC3CC3)n2n1 [Example 52]
- IC50 [1, 4]: 0.06 µM
- EC50 [2]: 6.73 nM
- IC50 [3, 5]: 0.1 µM

SMILES: [2H]C([2H])([2H])NC(=O)c1occc1Nc1cc(NC)c2ncc(C(=O)NC3CC3)n2n1 [Example 53]
- IC50 [1, 4]: 0.07 µM
- EC50 [2]: 2.82 nM
- IC50 [3, 5]: 0.06 µM

SMILES: CNc1cc(Nc2ccoc2C(=O)NC(C)C)nn2c(C(=O)NC3CC3)cnc12 [Example 54]
- IC50 [1, 4]: 0.05 µM
- EC50 [2]: 6.06 nM
- IC50 [3, 5]: 0.17 µM

SMILES: CNc1cc(Nc2ccoc2C(=O)Nc2ccc(OC)nc2)nn2c(C(=O)NC3CC3)cnc12 [Example 55]
- IC50 [1, 4]: 0.03 µM
- EC50 [2]: 2.87 nM
- IC50 [3, 5]: 0.06 µM

SMILES: CNc1cc(Nc2ccoc2C(=O)Nc2ccc(F)cc2)nn2c(C(=O)NC3CC3)cnc12 [Example 56]
- IC50 [1, 4]: 0.02 µM
- EC50 [2]: 2.08 nM
- IC50 [3, 5]: 0.03 µM

SMILES: CNc1cc(Nc2ccoc2C(=O)Nc2cccnc2)nn2c(C(=O)NC3CC3)cnc12 [Example 58]
- IC50 [1, 4]: 0.11 µM
- EC50 [2]: 3.61 nM
- IC50 [3, 5]: 0.15 µM

SMILES: CNC(=O)c1nscc1Nc1cc(NC)c2ncc(C(=O)NC3CC3)n2n1 [Example 59, 4-((3-(cyclopropylcarbamoyl)-8-(methylamino)imidazo[1,2-b]pyridazin-6-yl)amino)-N-methylisothiazole-3-carboxamide]
- IC50 [1, 4]: 0.03 µM
- EC50 [2]: 1.93 nM
- IC50 [3, 5]: 0.01 µM

SMILES: CNc1cc(Nc2csnc2C(=O)Nc2ccccc2)nn2c(C(=O)NC3CC3)cnc12 [Example 60]
- IC50 [1, 4]: 0.0662 µM
- EC50 [2]: 2.69 nM
- IC50 [3, 5]: 0.211 µM

SMILES: CCNC(=O)c1nscc1Nc1cc(NC)c2ncc(C(=O)NC3CC3)n2n1 [Example 62]
- IC50 [1, 4]: 0.18 µM
- EC50 [2]: 9.3 nM
- IC50 [3, 5]: 0.54 µM

SMILES: CNc1cc(Nc2csnc2C(=O)N[C@@H]2C[C@@H]2F)nn2c(C(=O)NC3CC3)cnc12 [Example 64]
- IC50 [1, 4]: 0.06 µM
- EC50 [2]: 1.99 nM
- IC50 [3, 5]: 0.08 µM

SMILES: CNc1cc(Nc2csnc2C(=O)Nc2ccc(F)cc2)nn2c(C(=O)NC3CC3)cnc12 [Example 66]
- IC50 [1, 4]: 0.11 µM
- EC50 [2]: 10 nM
- IC50 [3, 5]: 0.4 µM

SMILES: [2H]C([2H])([2H])NC(=O)c1nscc1Nc1cc(NC)c2ncc(C(=O)NC3CCC3)n2n1 [Example 67]
- IC50 [1, 4]: 0.23 µM
- EC50 [2]: 40 nM
- IC50 [3, 5]: 0.47 µM

SMILES: [2H]C([2H])([2H])NC(=O)c1nscc1Nc1cc(NC)c2ncc(C(=O)N[C@@H]3C[C@@H]3F)n2n1 [Example 68]
- IC50 [1, 4]: 0.05 µM
- EC50 [2]: 2.78 nM
- IC50 [3, 5]: 0.14 µM

SMILES: [2H]C([2H])([2H])NC(=O)c1nscc1Nc1cc(NC)c2ncc(C(=O)NCCOC)n2n1 [Example 69]
- IC50 [1, 4]: 0.01 µM
- EC50 [2]: 2.29 nM
- IC50 [3, 5]: 0.05 µM

SMILES: [2H]C([2H])([2H])NC(=O)c1nscc1Nc1cc(NC)c2ncc(C(=O)NCc3nccs3)n2n1 [Example 70]
- IC50 [1, 4]: 0.11 µM
- EC50 [2]: 20 nM
- IC50 [3, 5]: 0.42 µM

SMILES: CCNC(=O)c1nscc1Nc1cc(NC)c2ncc(C(=O)NC3CCC3)n2n1 [Example 71]
- IC50 [1, 4]: 0.21 µM
- EC50 [2]: 8.09 nM
- IC50 [3, 5]: 0.2 µM

SMILES: CCNC(=O)c1nscc1Nc1cc(NC)c2ncc(C(=O)NCCOC)n2n1 [Example 72]
- IC50 [1, 4]: 0.07 µM
- EC50 [2]: 5.78 nM
- IC50 [3, 5]: 0.14 µM

SMILES: CCNC(=O)c1nscc1Nc1cc(NC)c2ncc(C(=O)N[C@@H]3C[C@@H]3F)n2n1 [Example 73]
- IC50 [1, 4]: 0.2 µM
- EC50 [2]: 20 nM
- IC50 [3, 5]: 0.16 µM

SMILES: CCNC(=O)c1nscc1Nc1cc(NC)c2ncc(C(=O)NC(CO)CO)n2n1 [Example 74]
- IC50 [1, 4]: 0.02 µM
- EC50 [2]: 7.25 nM
- IC50 [3, 5]: 0.07 µM

SMILES: CCNC(=O)c1nscc1Nc1cc(NC)c2ncc(C(=O)NCc3nccs3)n2n1 [Example 75]
- IC50 [1, 4]: 2.29 µM
- EC50 [2]: 10 nM
- IC50 [3, 5]: 3.31 µM

SMILES: CNC(=O)c1ncsc1Nc1cc(NC)c2ncc(C(=O)NC3CC3)n2n1 [Example 77]
- IC50 ([1]; Kit225 T cells, 200 U/mL human recombinant IFNα, 5-6 hours, luciferase, read-out: IFNa Kit225 Reporter, LE (IC50)): 0.22 µM
- EC50 ([2]; 2.5 nM Tyk2 (575-869), 40 nM [3H] probe, 30 minutes at room temperature, read-out: Probe Displacement EC50): 20 nM
- IC50 ([3]; Kit225 T cells, 20 ng/mL human recombinant IL-23, 5-6 hours, luciferase, read-out: IL-23 Kit225 Reporter, LE (IC50)): 0.57 µM

SMILES: CNC(=O)c1ncsc1Nc1cc(NC)c2ncc(C(=O)NC3CC3)n2n1 [Example 78, 5-((3-(cyclopropylcarbamoyl)-8-(methylamino)imidazo[1,2-b]pyridazin-6-yl)amino)-N-methylthiazole-4-carboxamide]
- IC50 [1, 4]: 0.26 µM
- EC50 [2]: 10 nM
- IC50 [3, 5]: 0.12 µM

SMILES: CCNC(=O)c1ncsc1Nc1cc(NC)c2ncc(C(=O)NC3CC3)n2n1 [Example 79]
- IC50 [1, 4]: 0.15 µM
- EC50 [2]: 20 nM
- IC50 [3, 5]: 0.32 µM

SMILES: CCCNC(=O)c1ncsc1Nc1cc(NC)c2ncc(C(=O)NC3CC3)n2n1 [Example 80]
- IC50 [1, 4]: 0.13 µM
- EC50 [2]: 20 nM
- IC50 [3, 5]: 0.14 µM

SMILES: CNc1cc(Nc2scnc2C(=O)NC(C)C)nn2c(C(=O)NC3CC3)cnc12 [Example 81]
- IC50 [1, 4]: 0.31 µM
- EC50 [2]: 3.24 nM
- IC50 [3, 5]: 0.3 µM

SMILES: CNc1cc(Nc2scnc2C(=O)Nc2ccccc2)nn2c(C(=O)NC3CC3)cnc12 [Example 82]
- IC50 [1, 4]: 0.35 µM
- EC50 [2]: 3.95 nM
- IC50 [3, 5]: 0.19 µM

SMILES: CNc1cc(Nc2scnc2C(=O)Nc2cccnc2)nn2c(C(=O)NC3CC3)cnc12 [Example 83]
- IC50 [1, 4]: 1.76 µM
- EC50 [2]: 10 nM
- IC50 [3, 5]: 0.16 µM

SMILES: CNC(=O)c1nc(C)sc1Nc1cc(NC)c2ncc(C(=O)NC3CC3)n2n1 [Example 84, 5-((3-(cyclopropylcarbamoyl)-8-(methylamino)imidazo[1,2-b]pyridazin-6-yl)amino)-N,2-dimethylthiazole-4-carboxamide]
- IC50 [1, 4]: 0.18 µM
- EC50 [2]: 4.51 nM
- IC50 [3, 5]: 0.11 µM
